Measurements taken from patent EP4755888A1 (ILAb Co., Ltd., priority 2023, dated 2025).

Molecular target: PD-1/PD-L1 (Homo sapiens, UniProt Q9NZQ7)
Assay: TR-FRET PD-1/PD-L1 binding inhibition at the molecular level (free proteins)
Conditions: Tag1-PD-L1 and Tag2-PD-1 proteins, twelve concentrations from 200 nM, 2 hours at room temperature, read-out: FRET assay (IC50)
Method: In order to evaluate the inhibitory activity of the compounds synthesized according to the above Preparation Examples against PD-1/PD-L1 molecules in a free protein state,a TR-FRET (Time-Resolved Fluorescence Energy Transfer) experimetn was performed as described below.
Specifically, the compounds were prepared in a 96-well plate by serial dilution starting from 200 nM with 1/2 dilutions to obtain a total of twelve concentrations, and 2 µL of each compound solution was added to a 384-well plate. Thereafter, Tag1-PD-L1 protein and Tag2-PD-1 protein were each prepared at a 1x concentration, mixed at a ratio of 1:1, and 8 µL of the mixed solution was added to each well of the 384-well plate containing the compounds. Anti-Tag1 Eu Cryptate reagent and Anti-Tag2 XL665 antibody were each prepared at a 1* concentration, mixed at a ratio of 1:1, and 10 µL of the mixed solution was added to each well of the 384-well plate containing the compounds and proteins, followed by incubation at room temperature for 2 hours. Upon completion of the reaction, fluorescence signals at wavelengths of 620 nm and 665 nm were measured using a microplate reader.

Chain of PD-1/PD-L1 (Q9NZQ7 19-238 limits assumed): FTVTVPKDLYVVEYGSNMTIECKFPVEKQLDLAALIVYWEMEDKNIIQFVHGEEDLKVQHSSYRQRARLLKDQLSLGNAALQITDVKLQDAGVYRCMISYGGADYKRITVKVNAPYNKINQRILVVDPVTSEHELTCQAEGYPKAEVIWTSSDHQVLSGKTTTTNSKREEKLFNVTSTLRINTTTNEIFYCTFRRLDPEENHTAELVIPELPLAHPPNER

| Compound | IC50 [nM] |
| --- | --- |
| Cc1c(NC(=O)c2cc3n(n2)CCCC3NC[C@@H]2CCC(=O)N2)cccc1-c1cccc(Nc2nccc3cc(CN4CC[C@@H](O)C4)cnc23)c1C (stereo partly drawn) [Compound 15, N-(3'-((3-(((R)-3-hydroxypyrrolidin-1-yl)methyl)-1,7-naphthyridin-8-yl)amino)-2,2'-dimethyl-[1,1'-biphenyl]-3-yl)-4-((((S)-5-oxopyrrolidin-2-yl)methyl)amino)-4,5,6,7-tetrahydropyrazolo[1,5-a]pyridine-2-carboxamide] | < 10 |
| Cc1c(NC(=O)c2cc3n(n2)CCCC3NCC(=O)O)cccc1-c1cccc(Nc2nccc3cc(CN4CC[C@@H](O)C4)cnc23)c1C (stereo partly drawn) [Compound 16, 2-((2-((3'-((3-(((R)-3-hydroxypyrrolidin-1-yl)methyl)-1,7-naphthyridin-8-yl)amino)-2,2'-dimethyl-[1,1'-biphenyl]-3-yl)carbamoyl)-4,5,6,7-tetrahydropyrazolo[1,5-a]pyridin-4-yl)amino)acetic acid] | < 10 |
| Cc1c(NC(=O)c2cc3c(NC(C)(C)C(=O)O)cccn3n2)cccc1-c1cccc(Nc2nccc3cc(CN4CC[C@@H](O)C4)cnc23)c1C [Compound 17, (R)-2-((2-((3'-((3-((3-hydroxypyrrolidin-1-yl)methyl)-1,7-naphthyridin-8-yl)amino)-2,2'-dimethyl-[1,1'-biphenyl]-3-yl)carbamoyl)pyrazolo[1,5-a]pyridin-4-yl)amino)-2-methylpropanoic acid] | < 10 |
| O=C(Nc1cccc(-c2cccc(Nc3nccc4cc(CN5CC[C@@H](O)C5)cnc34)c2Cl)c1Cl)c1cc2n(n1)CCCC2O (stereo partly drawn) [Compound 18, N-(2,2'-dichloro-3'-((3-(((R)-3-hydroxypyrrolidin-1-yl)methyl)-1,7-naphthyridin-8-yl)amino)-[1,1'-biphenyl]-3-yl)-4-hydroxy-4,5,6,7-tetrahydropyrazolo[1,5-a]pyridine-2-carboxamide] | 10 to 100 |
| CC(=O)NCCNC1CCCn2nc(C(=O)Nc3cccc(-c4cccc(Nc5nccc6cc(CN7CC[C@@H](O)C7)cnc56)c4Cl)c3Cl)cc21 (stereo partly drawn) [Compound 19, 4-((2-acetamidoethyl)amino)-N-(2,2'-dichloro-3'-((3-(((R)-3-hydroxypyrrolidin-1-yl)methyl)-1,7-naphthyridin-8-yl)amino)-[1,1'-biphenyl]-3-yl)-4,5,6,7-tetrahydropyrazolo[1,5-a]pyridine-2-carboxamide] | 10 to 100 |
| O=C(Nc1cccc(-c2cccc(Nc3nccc4cc(CN5CC[C@@H](O)C5)cnc34)c2Cl)c1Cl)c1cc2n(n1)CCCC2NCCO (stereo partly drawn) [Compound 20, N-(2,2'-dichloro-3'-((3-(((R)-3-hydroxypyrrolidin-1-yl)methyl)-1,7-naphthyridin-8-yl)amino)-[1,1'-biphenyl]-3-yl)-4-((2-hydroxyethyl)amino)-4,5,6,7-tetrahydropyrazolo[1,5-a]pyridine-2-carboxamide] | 10 to 100 |
| O=C1CC[C@@H](CNC2CCCn3nc(C(=O)Nc4cccc(-c5cccc(Nc6nccc7cc(CN8CC[C@@H](O)C8)cnc67)c5Cl)c4Cl)cc32)N1 (stereo partly drawn) [Compound 21, N-(2,2'-dichloro-3'-((3-(((R)-3-hydroxypyrrolidin-1-yl)methyl)-1,7-naphthyridin-8-yl)amino)-[1,1'-biphenyl]-3-yl)-4-((((S)-5-oxopyrrolidin-2-yl)methyl)amino)-4,5,6,7-tetrahydropyrazolo[1,5-a]pyridine-2-carboxamide] | 10 to 100 |
| O=C(Nc1cccc(-c2cccc(Nc3nccc4cc(CN5CC[C@@H](O)C5)cnc34)c2Cl)c1Cl)c1cc2n(n1)CCCC2N1CC[C@@H](C(=O)O)C1 (stereo partly drawn) [Compound 22, (3R)-1-(2-((2,2'-dichloro-3'-((3-(((R)-3-hydroxypyrrolidin-1-yl)methyl)-1,7-naphthyridin-8-yl)amino)-[1,1'-biphenyl]-3-yl)carbamoyl)-4,5,6,7-tetrahydropyrazolo[1,5-a]pyridin-4-yl)pyrrolidine-3-carboxylic acid] | < 10 |
